# Experimental data taken from patent US4808584A, “Quinolinecarboxylic acid derivatives and antibacterial agent containing the same” (Kanebo, Ltd., priority 1987, dated 1989).
# Assays:
# [1] = test system: Staphylococcus aureus IID 803; assay: Minimum inhibitory concentration (MIC); format: cell-based; conditions: IID803; Staphylococcus aureus IID 803, Gram +; read-out: Minimum inhibitory concentration (MIC)
# Description: (§1) The compounds of the present invention (A, C, E, F, G, H and I) and ofloxacin as control were dissolved in 0.1N aqueous potassium hydroxide to prepare a solution of 5000 μg/ml in concentration. The compounds of the present invention (B, D and J) were dissolved in sterilized distilled water to prepare a solution of 5000 μg/ml in concentration. Each solution was diluted with sterilized distilled water to prepare a standard solution with a concentration of each test compound: 1000 μg/ml. The test was carried out by a method approved by Japan Society of Chemotherapy [cf. Chemotherapy, 29, 76-79 (1981)(TOKYO)].
# [2] = test system: Pseudomonas aeruginosa IFO 3445; assay: Minimum inhibitory concentration (MIC); format: cell-based; conditions: Pseudomonas aeruginosa, IFO3445, Pseudomonas aeruginosa IFO 3445, Gram -
# Description: as §1
# Proteus vulgaris OX-19 = assay: Minimum inhibitory concentration (MIC); format: cell-based; conditions: OX19; Proteus vulgaris OX-19, Gram -; read-out: Minimum inhibitory concentration (MIC)
# Description: as §1
# [3] = test system: Acinetobacter calcoaceticus AC 54; assay: Minimum inhibitory concentration (MIC); format: cell-based; conditions: Acinetobacter calcoaceticus, AC54, Acinetobacter calcoaceticus AC 54, Gram -
# Description: as §1
# [4] = test system: Micrococcus luteus ATCC 9341; assay: Minimum inhibitory concentration (MIC); format: cell-based; conditions: ATCC9341; Micrococcus luteus ATCC 9341, Gram +
# Description: as §1
# [5] = test system: Serratia marcescens IAM 1184; assay: Minimum inhibitory concentration (MIC); format: cell-based; conditions: Serratia marcescens, IAM1184, Serratia marcescens IAM 1184, Gram -
# Description: as §1
# [6] = test system: Enterobacter aerogenes ATCC 13048; assay: Minimum inhibitory concentration (MIC); format: cell-based; conditions: Klebsiella aerogenes, ATCC13048, Enterobacter aerogenes ATCC 13048, Gram -
# Description: as §1
# [7] = test system: Citrobacter freundii NIHJ 10018-68; assay: Minimum inhibitory concentration (MIC); format: cell-based; conditions: NIHJ10018; Citrobacter freundii NIHJ 10018-68, Gram -
# Description: as §1
# [8] = test system: Morganella morganii IFO 3848; assay: Minimum inhibitory concentration (MIC); format: cell-based; conditions: IFO3848; Morganella morganii IFO 3848, Gram -
# Description: as §1
# [9] = test system: Escherichia coli NIHJ JC-2; assay: Minimum inhibitory concentration (MIC); format: cell-based; conditions: NIHJJC2; Escherichia coli NIHJ JC-2, Gram -
# Description: as §1
# [10] = test system: Staphylococcus aureus FDA 209P JC-1; assay: Minimum inhibitory concentration (MIC); format: cell-based; conditions: FDA209P; Staphylococcus aureus FDA 209P JC-1, Gram +
# Description: as §1
# [11] = test system: Klebsiella pneumoniae PCI 602; assay: Minimum inhibitory concentration (MIC); format: cell-based; conditions: Klebsiella pneumoniae, PCI602, Klebsiella pneumoniae PCI 602, Gram -; read-out: Minimum inhibitory concentration (MIC)
# Description: as §1
# Enterobacter cloacae 963 = assay: Minimum inhibitory concentration (MIC); format: cell-based; conditions: Enterobacter cloacae 963, Gram -
# Description: as §1
# [12] = test system: Proteus mirabilis IFO 3849; assay: Minimum inhibitory concentration (MIC); format: cell-based; conditions: IFO3849; Proteus mirabilis IFO 3849, Gram -
# Description: as §1
# [13] = test system: Bacillus subtilis ATCC 6633; assay: Minimum inhibitory concentration (MIC); format: cell-based; conditions: ATCC6633; Bacillus subtilis ATCC 6633, Gram +; read-out: Minimum inhibitory concentration (MIC)
# Description: as §1
# [14] = test system: Pseudomonas aeruginosa E-2; assay: Minimum inhibitory concentration (MIC); format: cell-based; conditions: E2; Pseudomonas aeruginosa E-2, Gram -
# Description: as §1
# [15] = test system: Salmonella typhimurium IID 971; assay: Minimum inhibitory concentration (MIC); format: cell-based; conditions: Salmonella enterica, Salmonella typhimurium IID 971, Gram -; read-out: Minimum inhibitory concentration (MIC)
# Description: as §1
# [16] = test system: Staphylococcus epidermidis IAM-1296; assay: Minimum inhibitory concentration (MIC); format: cell-based; conditions: Staphylococcus epidermidis, IAM1296, Staphylococcus epidermidis IAM-1296, Gram +
# Description: as §1
# Escherichia coli KC-14 [17] = assay: Minimum inhibitory concentration (MIC); format: cell-based; conditions: KC14; Escherichia coli KC-14, Gram -
# Description: as §1
# [18] = test system: Pseudomonas aeruginosa NCTC 10490; assay: Minimum inhibitory concentration (MIC); format: cell-based; conditions: Pseudomonas aeruginosa, NCTC10490, Pseudomonas aeruginosa NCTC 10490, Gram -
# Description: as §1
# [19] = test system: Streptococcus faecalis IID 682; assay: Minimum inhibitory concentration (MIC); format: cell-based; conditions: Enterococcus faecalis, IID682, Streptococcus faecalis IID 682, Gram +
# Description: as §1
# Shigella sonnei EW-33 = assay: Minimum inhibitory concentration (MIC); format: cell-based; conditions: EW33; Shigella sonnei EW-33, Gram -
# Description: as §1
# [20] = test system: Pseudomonas aeruginosa E-2; assay: Effect on treatment of general infectious disease; format: in vivo, ddY male mice; conditions: E2, 168 h, P. aeruginosa E-2, 1.6×10^4 CFU/mouse i.p., oral one hour after infection, survival after one week
# Description: Pseudomonas aeruginosa E-2 (1.6×10^4 CFU/mouse)
# (§2) The test microorganisms were subjected to standing culture in Trypto-Soya Agar "Nissui" (made by Nissui Seiyaku K.K., Japan) at 37° C. for 16 to 18 hours. The culture was then diluted with PBS (Dulbecco's phosphate buffered saline) and mixed with an equivalent amount of 10% (w/v) Mucin (BACTO MUCIN BACTERIOLOGICAL, made by Difco Co.) to prepare a microorganism solution. The thus prepared microorganism solution (0.5 ml each) was intraperitoneally innoculated to ddY male mice (4 weeks age, weighing 20-22 g, 5 mice in each group), to infect the animals. One hour after the infection, the compound (B) of the present invention dissolved in sterilized distilled water or ofloxacin suspended in 0.5% (w/v) aqueous sodium carboxymethyl cellulose solution was orally adiministered to mice.
# (§3) The mice were daily observed for one week, and from the survival number of mice after one week, the 50% effective dose (ED50) was calculated by Weil method.
# [21] = test system: Staphylococcus aureus IID 803; assay: Effect on treatment of general infectious disease; format: in vivo, ddY male mice; conditions: IID803, 168 h, S. aureus IID 803, 1.0×10^6 CFU/mouse i.p., oral one hour after infection, survival after one week
# Description: Staphylococcus aureus IID 803 (1.0×10^6 CFU/mouse)
# as §2, §3
# Escherichia coli KC-14 [22] = assay: Effect on treatment of general infectious disease; format: in vivo, ddY male mice; conditions: KC14, 168 h, E. coli KC-14, 1.2×10^4 CFU/mouse i.p., oral one hour after infection, survival after one week
# Description: Escherichia coli KC-14 (1.2×10^4 CFU/mouse)
# as §2, §3
smiles,measurement,setting,value
"CC1COc2c(N3CCN(C)CC3)c(F)cc3c(=O)c(C(=O)O)cn1c23 (racemic) [Ofloxacin, reference compound]",MIC,[1],0.39 µg/mL
same,MIC,[2],1.56 µg/mL
same,MIC,Proteus vulgaris OX-19,0.05 µg/mL
same,MIC,[3],0.39 µg/mL
same,MIC,[4],3.13 µg/mL
same,MIC,[5],0.78 µg/mL
same,MIC,[6],0.1 µg/mL
same,MIC,[7],0.39 µg/mL
same,MIC,[8],0.1 µg/mL
same,MIC,[9],0.1 µg/mL
same,MIC,[10],0.39 µg/mL
same,MIC,[11],0.05 µg/mL
same,MIC,Enterobacter cloacae 963,0.2 µg/mL
same,MIC,[12],0.39 µg/mL
same,MIC,[13],0.1 µg/mL
same,MIC,[14],1.56 µg/mL
same,MIC,[15],0.05 µg/mL
same,MIC,[16],0.78 µg/mL
same,MIC,Escherichia coli KC-14 [17],0.1 µg/mL
same,MIC,[18],1.56 µg/mL
same,MIC,[19],1.56 µg/mL
same,MIC,Shigella sonnei EW-33,0.05 µg/mL
same,ED50,[20],22.9 mg/kg
same,ED50,[21],11.5 mg/kg
same,ED50,Escherichia coli KC-14 [22],1.1 mg/kg
